Experimental data reported in PMC8470483, “Bidirectional Influences of Cranberry on the Pharmacokinetics and Pharmacodynamics of Warfarin with Mechanism Elucidation” (Nutrients, 2021).
Read-outs that look alike come from different tables or passages of the source. Marks after values point to notes of the source that are not given here.

How the values were obtained:
[1] = Measurement of INR in rats (anticoagulation effect of warfarin); format: in vivo; settings: for INR value at 24 h: mean ± S.E.
Procedure: In the pharmacodynamic study, the rats were randomly divided into four groups (n = 8 in each group). In the first experiment, two groups of rats were orally administered (±) warfarin (0.2 mg/kg) alone and with CJ (5 g/kg) given at 0.5 h prior to (±) warfarin dosing, and blood samples were drawn at 6, 10 and 24 h after (±) warfarin dosing. In the second experiment, two groups of rats were orally administered (±) warfarin (0.2 mg/kg) with and without CJ (5 g/kg), given at 10 h after (±) warfarin dosing, and blood samples were drawn at 10, 24, and 48 h after (±) warfarin dosing.
Ten µL of blood was collected and the INR was measured using CoaguChek® XS System (Roche Diagnostics GmbH, Mannheim, Germany). All procedures followed the manufacturer’s protocol.

[2] = rats; for Change of AUC0–10 vs warfarin alone / Change of AUC0–t vs warfarin alone / Change of Cmax vs warfarin alone: CJ 5.0 g/kg 0.5 h before warfarin; for Effect of CJ on AUC0–t / Effect of CJ on Cmax: CJ given at 10 h after (±) warfarin; for Decrease of AUC0-t / Decrease of AUC0–10 / Decrease of Cmax: CJ ingestion at 0.5 h before (±) warfarin, vs warfarin alone; for AUC0–10 / AUC0–t / AUC48–96 / Cmax: mean ± S.E.
Procedure: In the pharmacokinetic interaction study, the rats were randomly divided into three groups (n = 7 in each group). The first group of rats was orally administered (±) warfarin (0.2 mg/kg) alone. The second and third groups of rats were administered CJ (5 g/kg) at 0.5 h prior to (±) warfarin and at 10 h after (±) warfarin dosing, respectively. The study was performed in a parallel design. Blood samples were drawn at 0.5, 1.0, 2.0, 6.0, 10, 24, 48, 72, and 96 h after (±) warfarin dosing and collected in a Vacutainer K2 EDTA tube (BD, New Jersey, USA). The blood samples were centrifuged to obtain plasma.
Briefly, 100 µL of plasma was mixed with 50 µL of 0.5N formic acid and then partitioned with 150 µL of ethyl acetate containing 10 µg/mL of caffeic acid as an internal standard.
The pharmacokinetic parameters were calculated by Phoenix WinNonlin® version 8.1 (Pharsight Corporation, St. Louis, MO, USA). The unpaired Student’s t-test and one-way ANOVA were used for statistical comparisons, taking p < 0.05 as significant.

[3] = target: CYP2C9 (Homo sapiens, UniProt P11712); experiment: Vivid CYP450 screening kit, CYP2C9 activity; settings: positive control, 10 μM, in blank serum
CYP2C9, sequence (P11712 whole entry): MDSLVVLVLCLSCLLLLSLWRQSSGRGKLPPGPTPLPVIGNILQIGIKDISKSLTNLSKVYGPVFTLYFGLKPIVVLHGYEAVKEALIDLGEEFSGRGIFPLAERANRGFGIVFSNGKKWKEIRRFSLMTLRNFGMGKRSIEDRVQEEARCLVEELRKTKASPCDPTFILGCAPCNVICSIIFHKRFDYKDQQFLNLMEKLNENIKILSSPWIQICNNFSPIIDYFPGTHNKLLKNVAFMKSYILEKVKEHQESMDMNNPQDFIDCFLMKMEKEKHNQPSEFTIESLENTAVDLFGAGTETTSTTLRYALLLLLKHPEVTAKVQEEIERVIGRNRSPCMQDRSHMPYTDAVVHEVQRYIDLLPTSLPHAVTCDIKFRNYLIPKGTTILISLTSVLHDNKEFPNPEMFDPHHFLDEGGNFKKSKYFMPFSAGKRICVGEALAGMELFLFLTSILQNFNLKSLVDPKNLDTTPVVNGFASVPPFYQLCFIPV
Procedure: Vivid® CYP450 screening kits were used to evaluate the effects of CMs on the activities of CYP1A2, CYP2C9, and CYP3A4, individually [26, 27], and all the procedures were performed based on the standard protocols.

[4] = oral (±) warfarin 0.2 mg/kg + CJ 5.0 g/kg 0.5 h before warfarin
[5] = oral (±) warfarin 0.2 mg/kg + CJ 5.0 g/kg 10 h after warfarin
[6] = oral (±) warfarin 0.2 mg/kg alone

CC(=O)CC(c1ccccc1)c1c(O)c2ccccc2oc1=O (racemic) [(±) warfarin, (±) Warfarin sodium]
INR value at 24 h ([1]; control rats, oral (±) warfarin 0.2 mg/kg alone): 1.4 ± 0.1
INR value at 24 h compared with control rats ([1]; rats, CJ given 0.5 h prior to warfarin): not different from the control rats
Increase of INR value at 24 h vs control rats ([1]; rats, CJ given 10 h after warfarin): 93%
INR value at 24 h ([1]; rats, oral (±) warfarin 0.2 mg/kg + CJ 5 g/kg given 0.5 h prior to warfarin): 1.6 ± 0.1
INR value at 24 h ([1]; rats, oral (±) warfarin 0.2 mg/kg + CJ 5 g/kg given 10 h later): 2.7 ± 0.5

CC(=O)C[C@H](c1ccccc1)c1c(O)c2ccccc2oc1=O [R-warfarin]
Change of AUC0–10 vs warfarin alone [2]: (−54%)
Change of AUC0–t vs warfarin alone [2]: (−52%)
Change of Cmax vs warfarin alone [2]: (−51%)
Effect of CJ on AUC0–t [2]: not affected
Effect of CJ on Cmax [2]: not affected
Decrease of AUC0-t [2]: 52%
Decrease of AUC0–10 [2]: 54%
Decrease of Cmax [2]: 51%
AUC0–10 [2, 4]: 1310.8 ± 169.6 ^b h⋅ng/mL
AUC0–t [2, 4]: 3007.6 ± 230.0 ^b h⋅ng/mL
AUC48–96 [2, 4]: 90.4 ± 58.2 h⋅ng/mL
Cmax [2, 4]: 168.6 ± 17.2 ^b ng/mL
AUC0–10 [2, 5]: 2943.7 ± 185.7 ^a h⋅ng/mL
AUC0–t [2, 5]: 4739.3 ± 255.0 ^ab h⋅ng/mL
Cmax [2, 5]: 402.8 ± 33.6 ^a ng/mL
AUC0–10 [2, 6]: 2848.9 ± 395.0 ^a h⋅ng/mL
AUC0–t [2, 6]: 6209.2 ± 1253.4 ^a h⋅ng/mL
AUC48–96 [2, 6]: 222.0 ± 125.3 h⋅ng/mL
Cmax [2, 6]: 341.1 ± 56.6 ^a ng/mL

CC(=O)C[C@@H](c1ccccc1)c1c(O)c2ccccc2oc1=O [S-warfarin]
Change of AUC0–10 vs warfarin alone [2]: (−52%)
Change of AUC0–t vs warfarin alone [2]: (−34%)
Change of Cmax vs warfarin alone [2]: (−48%)
Effect of CJ on AUC0–t [2]: not affected
Effect of CJ on Cmax [2]: not affected
Decrease of AUC0-t [2]: 34%
Decrease of AUC0–10 [2]: 52%
Decrease of Cmax [2]: 48%
AUC0–10 [2, 4]: 1561.8 ± 217.3 ^b h⋅ng/mL
AUC0–t [2, 4]: 6286.7 ± 456.3 ^b h⋅ng/mL
AUC48–96 [2, 4]: 1041.3 ± 296.5 ^a h⋅ng/mL
Cmax [2, 4]: 216.3 ± 18.1 ^b ng/mL
AUC0–10 [2, 5]: 3846.6 ± 260.8 ^a h⋅ng/mL
AUC0–t [2, 5]: 11,555.0 ± 613.6 ^a h⋅ng/mL
AUC48–96 [2, 5]: 2547.9 ± 339.5 ^b h⋅ng/mL
Cmax [2, 5]: 542.0 ± 59.4 ^a ng/mL
AUC0–10 [2, 6]: 3267.7 ± 423.2 ^a h⋅ng/mL
AUC0–t [2, 6]: 9459.1 ± 1659.6 ^a h⋅ng/mL
AUC48–96 [2, 6]: 1126.6 ± 434.5 ^a h⋅ng/mL
Cmax [2, 6]: 418.2 ± 69.4 ^a ng/mL

Nc1ccc(S(=O)(=O)Nc2ccnn2-c2ccccc2)cc1 [SFZ, sulfaphenazole]
Decrease of CYP2C9 activity [3]: 19%
